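Protocol summary: plate cells (96-well), add compound at 5 concentrations, incubate 48 h, interpolate endpoints linearly. TGI marks complete inhibition of growth.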

Some test systems named below: KM20L2 colon; K-562 leukemia; HL-60(TB) leukemia; NCI-H460 lung; UACC-257 melanoma; SR leukemia; HCT-116 colon; ACHN renal; OVCAR-8 ovarian; SK-MEL-5 melanoma; SF-268 CNS; M14 melanoma; A549 NSCLC; U251 CNS; SF-539 CNS; OVCAR-4 ovarian; NCI/ADR-RES ovarian; MCF7 breast; T-47D breast; MDA-MB-231 breast.
What all share (assay): NCI anticancer screen, dose series, 48 h

Take `O=C(O)C12C3CCC(C3)C1(C(=O)O)C1CCC2C1` (stereo unspecified): the TGI with KM20L2 colon, with K-562 leukemia, in the experiment with HL-60(TB) leukemia, in the experiment with NCI-H460 lung, with UACC-257 melanoma and in the experiment with SR leukemia was over 100 µM each time. In addition, the TGI in the experiment with HCT-116 colon, in the experiment with ACHN renal, in the experiment on OVCAR-8 ovarian, with SK-MEL-5 melanoma, with SF-268 CNS and in the experiment on M14 melanoma was over 100 µM throughout. Also, the TGI in the experiment with A549 NSCLC is over 100 µM.
Consider `N#CCCC(C#N)(C#N)CCC#N`, for which the TGI in the experiment with KM20L2 colon, with K-562 leukemia, with HL-60(TB) leukemia, in the experiment with NCI-H460 lung, in the experiment on UACC-257 melanoma and in the experiment with SR leukemia was over 100 µM in each case. The TGI in the experiment on HCT-116 colon, in the experiment with U251 CNS, in the experiment with ACHN renal, in the experiment with OVCAR-8 ovarian, with SK-MEL-5 melanoma and in the experiment with SF-268 CNS was over 100 µM throughout. Also, the TGI in the experiment with SF-539 CNS, in the experiment on M14 melanoma and with A549 NSCLC was over 100 µM in each case.
On to `CN1CCCS/C1=C1/SC(=S)N(c2ccccc2)C1=O`, for which the TGI with KM20L2 colon, in the experiment with K-562 leukemia, in the experiment on HL-60(TB) leukemia, in the experiment on NCI-H460 lung, in the experiment with UACC-257 melanoma and in the experiment on SR leukemia was over 100 µM in each case. The TGI with HCT-116 colon, with U251 CNS, in the experiment with ACHN renal, in the experiment on OVCAR-8 ovarian, in the experiment with SK-MEL-5 melanoma and in the experiment with SF-268 CNS was over 100 µM throughout. The TGI in the experiment on SF-539 CNS, with OVCAR-4 ovarian, in the experiment with M14 melanoma and in the experiment on A549 NSCLC was over 100 µM each time.
For `COc1ccccc1/C=C1\CCC(Cc2ccccc2)(CN(C)C)C1=O` (stereo unspecified), the TGI with KM20L2 colon was 2.34 µM; with K-562 leukemia it was over 34.5 µM; in the experiment with HL-60(TB) leukemia it was 15.1 µM; in the experiment on NCI/ADR-RES ovarian it was over 100 µM; in the experiment on NCI-H460 lung it was 12.8 µM; in the experiment on MCF7 breast, 25.6 µM. For the same compound, the TGI with UACC-257 melanoma is over 100 µM; in the experiment with SR leukemia it was 3.53 µM; in the experiment on T-47D breast, over 100 µM; in the experiment with HCT-116 colon, 39.4 µM; in the experiment with U251 CNS it was 45.5 µM; with ACHN renal it was over 100 µM. For the same compound, the TGI in the experiment on OVCAR-8 ovarian was 22.9 µM; in the experiment on SK-MEL-5 melanoma, 11.9 µM; in the experiment with SF-268 CNS it was over 100 µM; in the experiment with SF-539 CNS, 5.89 µM; in the experiment on MDA-MB-231 breast, 46.7 µM; in the experiment with OVCAR-4 ovarian, over 100 µM. Moreover, the TGI in the experiment on M14 melanoma was 34.9 µM; in the experiment on A549 NSCLC, over 100 µM.
With `O=c1[nH]c(=O)n([C@H]2C[C@@H](CO)[C@@H](O)C2)cc1I`, the TGI in the experiment with KM20L2 colon, with K-562 leukemia, in the experiment with HL-60(TB) leukemia, in the experiment on NCI-H460 lung, with UACC-257 melanoma and in the experiment on HCT-116 colon was over 100 µM each time. The TGI in the experiment with U251 CNS, in the experiment with ACHN renal, in the experiment with OVCAR-8 ovarian, in the experiment on SK-MEL-5 melanoma, in the experiment with SF-268 CNS and in the experiment with SF-539 CNS was over 100 µM in each case. For the same compound, the TGI in the experiment on OVCAR-4 ovarian, in the experiment on M14 melanoma and in the experiment on A549 NSCLC was over 100 µM each time.
Regarding `COc1ccc(S(=O)(=O)N/N=C(\C)CN2C(=O)c3ccccc3C2=O)cc1OC`, the TGI in the experiment on KM20L2 colon, in the experiment on K-562 leukemia, in the experiment with HL-60(TB) leukemia, in the experiment on NCI-H460 lung, with UACC-257 melanoma and with SR leukemia was over 100 µM each time. Besides, the TGI in the experiment on HCT-116 colon, in the experiment with U251 CNS, in the experiment with ACHN renal, in the experiment on OVCAR-8 ovarian, in the experiment with SK-MEL-5 melanoma and with SF-268 CNS was over 100 µM each time. Besides, the TGI in the experiment on SF-539 CNS, with OVCAR-4 ovarian, in the experiment on M14 melanoma and with A549 NSCLC was over 100 µM each time.
Turning to `N#Cc1ccc(C2OCC3CC=CCC3CO2)cc1` (stereo unspecified), the TGI is over 100 µM in the experiment with KM20L2 colon; over 100 µM with K-562 leukemia; 94.9 µM in the experiment on HL-60(TB) leukemia; over 100 µM in the experiment with NCI-H460 lung; over 100 µM in the experiment on UACC-257 melanoma; over 100 µM in the experiment on SR leukemia. The TGI in the experiment on HCT-116 colon was over 100 µM; in the experiment on U251 CNS, over 100 µM; with ACHN renal it was over 100 µM; in the experiment on OVCAR-8 ovarian, over 100 µM; in the experiment with SK-MEL-5 melanoma, 49 µM; in the experiment on SF-268 CNS it was over 100 µM. Further, the TGI in the experiment on SF-539 CNS, in the experiment with OVCAR-4 ovarian, with M14 melanoma and in the experiment on A549 NSCLC was over 100 µM each time.
On to `O=C1C(Cl)C(c2ccc(O)cc2)N1n1cnc2ccccc2c1=O` (stereo unspecified), for which the TGI was over 100 µM in the experiment on KM20L2 colon; over 100 µM in the experiment with K-562 leukemia; 72.3 µM with HL-60(TB) leukemia; over 100 µM in the experiment on NCI-H460 lung; over 100 µM with UACC-257 melanoma; 69.8 µM with SR leukemia. Also, the TGI with HCT-116 colon was 33 µM; in the experiment on U251 CNS it was over 100 µM; in the experiment with ACHN renal, 25.6 µM; in the experiment with OVCAR-8 ovarian, 26 µM; in the experiment with SK-MEL-5 melanoma, over 100 µM; in the experiment on SF-268 CNS, over 100 µM. Moreover, the TGI in the experiment with SF-539 CNS was over 100 µM; in the experiment with OVCAR-4 ovarian it was over 94 µM; with M14 melanoma it was 96.8 µM; with A549 NSCLC it was over 100 µM.
On to `O=C1CCC(=O)c2ccccc2N1`, for which the TGI with KM20L2 colon, with K-562 leukemia, in the experiment with HL-60(TB) leukemia, in the experiment with NCI-H460 lung, in the experiment with UACC-257 melanoma and with HCT-116 colon was over 100 µM each time. The TGI in the experiment on U251 CNS, in the experiment with ACHN renal, with OVCAR-8 ovarian, with SK-MEL-5 melanoma, in the experiment on SF-268 CNS and in the experiment with SF-539 CNS was over 100 µM each time. Moreover, the TGI in the experiment on OVCAR-4 ovarian, in the experiment on M14 melanoma and in the experiment on A549 NSCLC was over 100 µM in each case.
For `O=C1c2ccccc2C(=O)c2c1oc1cc(O)c(Cl)cc21`, the TGI came out at 6.79 µM with KM20L2 colon; 43.9 µM with K-562 leukemia; 32.9 µM with HL-60(TB) leukemia; 45.4 µM with NCI/ADR-RES ovarian; 9.89 µM with NCI-H460 lung; 25.2 µM in the experiment on MCF7 breast. The TGI is 7.78 µM in the experiment with UACC-257 melanoma; over 54.6 µM in the experiment with SR leukemia; 48.6 µM in the experiment with T-47D breast; 15.1 µM with HCT-116 colon; 22.3 µM in the experiment with U251 CNS; 17 µM in the experiment on ACHN renal. Also, the TGI in the experiment with OVCAR-8 ovarian came out at 23.4 µM; in the experiment on SK-MEL-5 melanoma, 1.58 µM; in the experiment on SF-268 CNS, 31.9 µM; in the experiment on SF-539 CNS, 16.1 µM; in the experiment with MDA-MB-231 breast, 33.9 µM; with OVCAR-4 ovarian, 23.4 µM. Besides, the figures for the TGI in the experiment with M14 melanoma and in the experiment with A549 NSCLC were 6.88 µM and 9.46 µM, respectively.
`Cc1ccc(S(=O)(=O)c2ccc(C)cc2[N+](=O)[O-])c([N+](=O)[O-])c1`: the TGI in the experiment with KM20L2 colon, with K-562 leukemia, in the experiment on NCI-H460 lung, in the experiment with SR leukemia, in the experiment with HCT-116 colon and with U251 CNS was over 100 µM in each case. Moreover, the TGI in the experiment on ACHN renal, with OVCAR-8 ovarian, with SK-MEL-5 melanoma, with SF-268 CNS, in the experiment with SF-539 CNS and in the experiment on OVCAR-4 ovarian was over 100 µM each time. The TGI in the experiment with M14 melanoma and in the experiment with A549 NSCLC was over 100 µM each time.
Consider `CN(C)CC1(Cc2ccccc2)CC/C(=C\c2ccccc2)C1=O` (stereo unspecified), for which the TGI is 35 µM in the experiment on KM20L2 colon; over 100 µM in the experiment with K-562 leukemia; 48.7 µM in the experiment with HL-60(TB) leukemia; 68.3 µM in the experiment with NCI-H460 lung; over 100 µM with UACC-257 melanoma; 60.4 µM in the experiment on SR leukemia. For the same compound, the TGI in the experiment with HCT-116 colon is over 100 µM; in the experiment on U251 CNS, over 100 µM; in the experiment with ACHN renal, over 100 µM; with OVCAR-8 ovarian, over 100 µM; in the experiment with SK-MEL-5 melanoma, 64.3 µM; in the experiment with SF-268 CNS, over 100 µM. In addition, the TGI was 60.3 µM with SF-539 CNS, over 100 µM in the experiment with OVCAR-4 ovarian, over 100 µM in the experiment on M14 melanoma and over 100 µM in the experiment with A549 NSCLC.
As for `Cc1c(-c2coc(-c3ccc([N+](=O)[O-])cc3)n2)c(=O)n(-c2ccccc2)n1C`, the TGI in the experiment on KM20L2 colon, in the experiment on HL-60(TB) leukemia, in the experiment on NCI-H460 lung, in the experiment on UACC-257 melanoma, in the experiment with HCT-116 colon and in the experiment on U251 CNS was over 100 µM in each case. Further, the TGI in the experiment on ACHN renal, with OVCAR-8 ovarian, with SK-MEL-5 melanoma, in the experiment on SF-268 CNS, in the experiment on SF-539 CNS and in the experiment with OVCAR-4 ovarian was over 100 µM each time. The TGI in the experiment on M14 melanoma and with A549 NSCLC was over 100 µM in each case.

For the origin of these results see PubChem BioAssay (NCI).
